Test results from patent US10336792B2, “Antimicrobial peptide dendrimers” (priority 2014, dated 2019).
Values after ≈ are worked out from the molar mass of the structure shown. Positions of bridges follow the written chain, without caps; N, C: chain ends. Non-standard residues stand in square brackets, D forms with d. Residues, ends and D or L forms follow the SMILES beside them. Groups on a side chain read outwards from the residue. Chains are numbered I, II in the order given. *: point of attachment. Decanoyl = CCCCCCCCCC(=O)*; Octanoyl = CCCCCCCC(=O)*; Dab = NCC[C@H](N)C(=O)O; Hexanoyl = CCCCCC(=O)*

Tests used:
Format in all cases: cell-based
[1] = tested on: Pseudomonas aeruginosa (strain PA01); experiment: microbe, parasite or virus in culture; details: strain
Summary of the method: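 Broth microdilution MIC against P. aeruginosa PAO1 in LB: peptides serially diluted by ⅔, bacteria added at OD600 0.001 and incubated 18–24 h at 37 °C. MTT added; MIC is the lowest concentration preventing visible growth.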

[2] = tested on: Bacillus subtilis (strain BR151); details: strain BR151
Summary of the method: (§1)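 Broth microdilution MIC in LB; overnight cultures diluted to OD600 0.001 and mixed 1:1 with ⅔-serially diluted samples (stock 1 mg mL^−1 in H2O), 37° C for 18-24 h. MTT (0.1%) added; MIC read by eye as lowest concentration inhibiting visible growth (yellow).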

[3] = tested on: Escherichia coli (strain DH5α); details: DH5α
Summary of the method: as §1

Structure (SMILES) | MIC P. aeruginosa PAO1 [1] | MIC B. subtilis BR151 [2] | MIC E. coli DH5α [3]
CC(C)C[C@H](NC(=O)[C@@H](N)CCN)C(=O)NCCCC[C@H](NC(=O)[C@H](CC(C)C)NC(=O)[C@@H](N)CCN)C(=O)N[C@@H](CCN)C(=O)N[C@@H](C)C(=O)NCCCC[C@H](NC(=O)[C@H](C)NC(=O)[C@H](CCN)NC(=O)[C@H](CCCCNC(=O)[C@H](CC(C)C)NC(=O)[C@@H](N)CCN)NC(=O)[C@H](CC(C)C)NC(=O)[C@@H](N)CCN)C(=O)N[C@@H](CCN)C(=O)N[C@@H](Cc1c[nH]c2ccccc12)C(=O)NCCCC[C@H](NC(=O)[C@H](Cc1c[nH]c2ccccc12)NC(=O)[C@H](CCN)NC(=O)[C@H](CCCCNC(=O)[C@H](C)NC(=O)[C@H](CCN)NC(=O)[C@H](CCCCNC(=O)[C@H](CC(C)C)NC(=O)[C@@H](N)CCN)NC(=O)[C@H](CC(C)C)NC(=O)[C@@H](N)CCN)NC(=O)[C@H](C)NC(=O)[C@H](CCN)NC(=O)[C@H](CCCCNC(=O)[C@H](CC(C)C)NC(=O)[C@@H](N)CCN)NC(=O)[C@H](CC(C)C)NC(=O)[C@@H](N)CCN)C(=O)N[C@@H](CCN)C(=O)N[C@@H](Cc1c[nH]c2ccccc12)C(N)=O [MSt-207, (DabL)8(KDabA)4(KDabW)2(KDabW)] (I: H-[Dab]LK([Leu-Dab])[Dab]AK[Dab]WK[Dab]W-NH2 / II: H-[Dab]LK([Leu-Dab])[Dab]AK[Dab]W / III: H-[Dab]LK([Leu-Dab])[Dab]A / IV: H-[Dab]LK([Leu-Dab])[Dab]A; amide I:6-IV:C, I:9-II:C, II:6-III:C; N-terminus assumed) | 8 µg/mL (≈ 1.92 µM) | 7 µg/mL (≈ 1.68 µM) | 21 µg/mL (≈ 5.04 µM)
CCCCCC(=O)NCCCC[C@H](NC(=O)[C@H](CC(C)C)NC(=O)[C@H](CCCCN)NC(=O)[C@H](CCCCNC(=O)[C@H](CC(C)C)NC(=O)[C@H](CCCCN)NC(=O)[C@H](CCCCNC(=O)[C@H](CC(C)C)NC(=O)[C@@H](N)CCCCN)NC(=O)[C@H](CC(C)C)NC(=O)[C@@H](N)CCCCN)NC(=O)[C@H](CC(C)C)NC(=O)[C@H](CCCCN)NC(=O)[C@H](CCCCNC(=O)[C@H](CC(C)C)NC(=O)[C@@H](N)CCCCN)NC(=O)[C@H](CC(C)C)NC(=O)[C@@H](N)CCCCN)C(N)=O [MSt-260, (KL)4(KKL)2(KKLKC6)] (I: H-KLK([Leu-Lys])KLKKLK(Hexanoyl)-NH2 / II: H-KLK([Leu-Lys])KL; amide I:6-II:C) | 1 µg/mL (≈ 0.432 µM) | 20 µg/mL (≈ 8.63 µM) | 2 µg/mL (≈ 0.863 µM)
CCCCCCCCCC(=O)NCCCC[C@H](NC(=O)[C@H](CC(C)C)NC(=O)[C@H](CCCCN)NC(=O)[C@H](CCCCNC(=O)[C@H](CC(C)C)NC(=O)[C@H](CCCCN)NC(=O)[C@H](CCCCNC(=O)[C@H](CC(C)C)NC(=O)[C@@H](N)CCCCN)NC(=O)[C@H](CC(C)C)NC(=O)[C@@H](N)CCCCN)NC(=O)[C@H](CC(C)C)NC(=O)[C@H](CCCCN)NC(=O)[C@H](CCCCNC(=O)[C@H](CC(C)C)NC(=O)[C@@H](N)CCCCN)NC(=O)[C@H](CC(C)C)NC(=O)[C@@H](N)CCCCN)C(N)=O [MSt-262, (KL)4(KKL)2(KKLKC10)] (I: H-KLK([Leu-Lys])KLKKLK(Decanoyl)-NH2 / II: H-KLK([Leu-Lys])KL; amide I:6-II:C) | 1 µg/mL (≈ 0.421 µM) | 2 µg/mL (≈ 0.843 µM) | 1 µg/mL (≈ 0.421 µM)

Next, values leading:

MIC P. aeruginosa PAO1 [1] | MIC B. subtilis BR151 [2] | MIC E. coli DH5α [3] | Structure (SMILES)
3 µg/mL (≈ 0.683 µM) | 2 µg/mL (≈ 0.455 µM) | 2 µg/mL (≈ 0.455 µM) | CC(C)C[C@H](NC(=O)[C@@H](N)CCN)C(=O)NCCCC[C@H](NC(=O)[C@H](CC(C)C)NC(=O)[C@@H](N)CCN)C(=O)N[C@@H](CCN)C(=O)N[C@@H](Cc1c[nH]c2ccccc12)C(=O)NCCCC[C@H](NC(=O)[C@H](Cc1c[nH]c2ccccc12)NC(=O)[C@H](CCN)NC(=O)[C@H](CCCCNC(=O)[C@H](CC(C)C)NC(=O)[C@@H](N)CCN)NC(=O)[C@H](CC(C)C)NC(=O)[C@@H](N)CCN)C(=O)N[C@@H](CCN)C(=O)N[C@@H](C)C(=O)NCCCC[C@H](NC(=O)[C@H](C)NC(=O)[C@H](CCN)NC(=O)[C@H](CCCCNC(=O)[C@H](Cc1c[nH]c2ccccc12)NC(=O)[C@H](CCN)NC(=O)[C@H](CCCCNC(=O)[C@H](CC(C)C)NC(=O)[C@@H](N)CCN)NC(=O)[C@H](CC(C)C)NC(=O)[C@@H](N)CCN)NC(=O)[C@H](Cc1c[nH]c2ccccc12)NC(=O)[C@H](CCN)NC(=O)[C@H](CCCCNC(=O)[C@H](CC(C)C)NC(=O)[C@@H](N)CCN)NC(=O)[C@H](CC(C)C)NC(=O)[C@@H](N)CCN)C(=O)N[C@@H](CCN)C(=O)N[C@@H](Cc1c[nH]c2ccccc12)C(N)=O [MSt-206, (DabL)8(KDabW)4(KDabA)2(KDabW)] (I: H-[Dab]LK([Leu-Dab])[Dab]WK[Dab]AK[Dab]W-NH2 / II: H-[Dab]LK([Leu-Dab])[Dab]WK[Dab]A / III: H-[Dab]LK([Leu-Dab])[Dab]W / IV: H-[Dab]LK([Leu-Dab])[Dab]W; amide I:6-IV:C, I:9-II:C, II:6-III:C; N-terminus assumed)
1 µg/mL (≈ 0.426 µM) | 4 µg/mL (≈ 1.71 µM) | 1 µg/mL (≈ 0.426 µM) | CCCCCCCC(=O)NCCCC[C@H](NC(=O)[C@H](CC(C)C)NC(=O)[C@H](CCCCN)NC(=O)[C@H](CCCCNC(=O)[C@H](CC(C)C)NC(=O)[C@H](CCCCN)NC(=O)[C@H](CCCCNC(=O)[C@H](CC(C)C)NC(=O)[C@@H](N)CCCCN)NC(=O)[C@H](CC(C)C)NC(=O)[C@@H](N)CCCCN)NC(=O)[C@H](CC(C)C)NC(=O)[C@H](CCCCN)NC(=O)[C@H](CCCCNC(=O)[C@H](CC(C)C)NC(=O)[C@@H](N)CCCCN)NC(=O)[C@H](CC(C)C)NC(=O)[C@@H](N)CCCCN)C(N)=O [MSt-261, (KL)4(KKL)2(KKLKC8)] (I: H-KLK([Leu-Lys])KLKKLK(Octanoyl)-NH2 / II: H-KLK([Leu-Lys])KL; amide I:6-II:C)
1 µg/mL (≈ 0.21 µM) | 5 µg/mL (≈ 1.05 µM) | 1 µg/mL (≈ 0.21 µM) | CCCCCC(=O)NCCCC[C@H](NC(=O)[C@H](CC(C)C)NC(=O)[C@H](CCCCN)NC(=O)[C@H](CCCCNC(=O)[C@H](CC(C)C)NC(=O)[C@H](CCCCN)NC(=O)[C@H](CCCCNC(=O)[C@H](CC(C)C)NC(=O)[C@H](CCCCN)NC(=O)[C@H](CCCCNC(=O)[C@H](CC(C)C)NC(=O)[C@@H](N)CCCCN)NC(=O)[C@H](CC(C)C)NC(=O)[C@@H](N)CCCCN)NC(=O)[C@H](CC(C)C)NC(=O)[C@H](CCCCN)NC(=O)[C@H](CCCCNC(=O)[C@H](CC(C)C)NC(=O)[C@@H](N)CCCCN)NC(=O)[C@H](CC(C)C)NC(=O)[C@@H](N)CCCCN)NC(=O)[C@H](CC(C)C)NC(=O)[C@H](CCCCN)NC(=O)[C@H](CCCCNC(=O)[C@H](CC(C)C)NC(=O)[C@H](CCCCN)NC(=O)[C@H](CCCCNC(=O)[C@H](CC(C)C)NC(=O)[C@@H](N)CCCCN)NC(=O)[C@H](CC(C)C)NC(=O)[C@@H](N)CCCCN)NC(=O)[C@H](CC(C)C)NC(=O)[C@H](CCCCN)NC(=O)[C@H](CCCCNC(=O)[C@H](CC(C)C)NC(=O)[C@@H](N)CCCCN)NC(=O)[C@H](CC(C)C)NC(=O)[C@@H](N)CCCCN)C(N)=O [MSt-264, (KL)8(KKL)4(KKL)2(KKLKC6)] (I: H-KLK([Leu-Lys])KLKKLKKLK(Hexanoyl)-NH2 / II: H-KLK([Leu-Lys])KLKKL / III: H-KLK([Leu-Lys])KL / IV: H-KLK([Leu-Lys])KL; amide I:6-IV:C, I:9-II:C, II:6-III:C)
1 µg/mL (≈ 0.209 µM) | 4 µg/mL (≈ 0.835 µM) | 1 µg/mL (≈ 0.209 µM) | CCCCCCCC(=O)NCCCC[C@H](NC(=O)[C@H](CC(C)C)NC(=O)[C@H](CCCCN)NC(=O)[C@H](CCCCNC(=O)[C@H](CC(C)C)NC(=O)[C@H](CCCCN)NC(=O)[C@H](CCCCNC(=O)[C@H](CC(C)C)NC(=O)[C@H](CCCCN)NC(=O)[C@H](CCCCNC(=O)[C@H](CC(C)C)NC(=O)[C@@H](N)CCCCN)NC(=O)[C@H](CC(C)C)NC(=O)[C@@H](N)CCCCN)NC(=O)[C@H](CC(C)C)NC(=O)[C@H](CCCCN)NC(=O)[C@H](CCCCNC(=O)[C@H](CC(C)C)NC(=O)[C@@H](N)CCCCN)NC(=O)[C@H](CC(C)C)NC(=O)[C@@H](N)CCCCN)NC(=O)[C@H](CC(C)C)NC(=O)[C@H](CCCCN)NC(=O)[C@H](CCCCNC(=O)[C@H](CC(C)C)NC(=O)[C@H](CCCCN)NC(=O)[C@H](CCCCNC(=O)[C@H](CC(C)C)NC(=O)[C@@H](N)CCCCN)NC(=O)[C@H](CC(C)C)NC(=O)[C@@H](N)CCCCN)NC(=O)[C@H](CC(C)C)NC(=O)[C@H](CCCCN)NC(=O)[C@H](CCCCNC(=O)[C@H](CC(C)C)NC(=O)[C@@H](N)CCCCN)NC(=O)[C@H](CC(C)C)NC(=O)[C@@H](N)CCCCN)C(N)=O [MSt-265, (KL)8(KKL)4(KKL)2(KKLKC8)] (I: H-KLK([Leu-Lys])KLKKLKKLK(Octanoyl)-NH2 / II: H-KLK([Leu-Lys])KLKKL / III: H-KLK([Leu-Lys])KL / IV: H-KLK([Leu-Lys])KL; amide I:6-IV:C, I:9-II:C, II:6-III:C)
